Results published in patent US9820983B2, “Immediate release pharmaceutical compositions comprising oxycodone and naloxone” (Purdue Pharma L.P., priority 2009, dated 2017).

Columns and labels:
[1] = Single dose bioavailability study of IR OXN 20/10 vs oxycodone IR capsule 20 mg and OXN PR 20/10 (Targin) in healthy subjects (Example 3); assay type: in vivo, human; conditions: oral, from the study treatments
Description: The study was an open-label, single-dose, 3-treatment, 3-period, randomised crossover. Each subject received single oral doses of IR OXN tablet 20/10 mg, oxycodone IR capsule 20 mg and OXN PR tablet 20/10 mg (Targin®). Subjects received each of the three treatments according to a random allocation schedule (RAS), with at least a 7-day washout period between each dosing.
Subjects attended a screening visit within 21 days of the first dosing day of Study Period 1. Eligible subjects then checked into the study unit on the day before dosing in each study period. Subjects were administered the appropriate study drug in a fasted state the following morning.
Pharmacokinetic blood samples were taken for 36 hours after administration of study drug in each study period, and subjects were discharged after the 36-hour blood sample.
IR OXN tablet 20/10 mg. The treatment was administered orally, in a fasted state, as follows: […]
Log-transformed data for the analytes oxycodone, noroxycodone, oxymorphone, noroxymorphone, naloxone, 6β-naloxol, naloxone-3-glucuronide and 6β-naloxol-3-glucuronide and the pharmacokinetic parameters AUCt, AUCINF and Cmax were analysed using a mixed effect linear model 18, with fixed terms for treatment and period and a random effect for subject.
Treatment ratios/differences and their associated 90% confidence intervals were calculated from the least square means.

[2] = Single dose study of dose proportionality of IR OXN tablets in healthy subjects (Example 2); assay type: in vivo, human; conditions: after IR OXN tablets, particularly with the lower doses
Excerpt: The study was an open-label, single-dose, 4-treatment, 4-period, randomised crossover study in healthy male and female subjects conducted at a single study centre. […] Subjects received each of the four treatments according to a random allocation schedule (RAS), with at least a 7-day washout period between each dosing.
Subjects attended a screening visit within 21 days of the first dosing day of Study Period 1. Eligible subjects then checked into the study unit on the day before dosing in each study period. Subjects were administered the appropriate study drug in a fasted state the following morning. […]
The following pharmacokinetic parameters were calculated from the plasma concentrations of oxycodone, noroxycodone, oxymorphone, noroxymorphone, naloxone, 6β-naloxol, naloxone-3-glucuronide and 6β-naloxol-3-glucuronide: • Area under the plasma concentration-time curve measured from the time of dosing to the last measurable concentration (AUCt) • Area under the plasma concentration-time curve measured from the time of dosing and extrapolated to infinity (AUCinf) • Maximum observed plasma concentration (Cmax) • Time of maximum observed plasma concentration (tmax) • Terminal phase rate constant (LambdaZ) • Terminal phase half-life (t1/2Z) […]
AUCt values were calculated using the linear trapezoidal method. […]

C=CCN1CC[C@]23c4c5ccc(O)c4O[C@H]2C(=O)CC[C@@]3(O)[C@H]1C5 [Naloxone, naloxone]
bioavailability of naloxone [1]: very low
plasma concentrations of naloxone [2]: extremely low
